Experimental data published in ChEMBL document CHEMBL3885861, “Open TG-GATES”.

Organism: Rattus norvegicus
Test: Open TG-GATES - Regimen: Daily Repeat
Format: toxicity, organism-based, Sprague-Dawley
Design: regimen Daily Repeat, gender Male, age 6 weeks
Details: in vivo, po, 300 mg/kg, route gavage, dose level High; for Bas / Eos / Fbg / Hb / Ht / Lym / MCH / MCV / Mono / Neu / PT / Plat / RBC / Ret / WBC / APTT: tissue Blood; for KIDNEY_L / KIDNEY_R / KIDNEY_TOTAL: tissue Kidney; for LIVER: tissue Liver; for ALP / ALT / AST / BUN / CRE / Ca / Cl / DBIL / GLC / IP / K / LDH / Na / PL / RALB / TBIL / TC / TP / gamma-GTP: tissue Plasma

In the case of `NC(=O)N1c2ccccc2C=Cc2ccccc21` [CARBAMAZEPINE], the Bas (72 h, time 3 day) is reported as 0%, the Eos (72 h, time 3 day) is reported as 1.2% and the Fbg (72 h, time 3 day) is reported as 203 mg/dL. It also gave a Hb (72 h, time 3 day) of 13.7 g/dL, a Ht (72 h, time 3 day) of 40.1% and a Lym (72 h, time 3 day) of 83.6%. The MCH (72 h, time 3 day) was 20.9 pg, the MCV (72 h, time 3 day) was 61 fL and the Mono (72 h, time 3 day) was 2.6%. For the same compound, the Neu (72 h, time 3 day) was 11.4%, the PT (72 h, time 3 day) was 11.8 s and the Plat (72 h, time 3 day) was 131.3 x10_4/uL. It also gave an RBC (72 h, time 3 day) of 657.8 x10_4/ul, a Ret (72 h, time 3 day) of 3.6% and a WBC (72 h, time 3 day) of 92.4 x10_2/uL. The KIDNEY_L (72 h, time 3 day) was 1.1 g, the KIDNEY_R (72 h, time 3 day) was 1 g and the KIDNEY_TOTAL (72 h, time 3 day) was 2.1 g. The LIVER (72 h, time 3 day) was 13.1 g, the ALP (72 h, time 3 day) was 978.4 IU/L and the ALT (72 h, time 3 day) was 40.2 IU/L. For the same compound, the AST (72 h, time 3 day) was 57.2 IU/L, the BUN (72 h, time 3 day) was 14 mg/dL and the CRE (72 h, time 3 day) was 0.4 mg/dL. For the same compound, the Ca (72 h, time 3 day) was 10.9 mg/dL, the Cl (72 h, time 3 day) was 103.2 meq/L and the DBIL (72 h, time 3 day) was 0.08 mg/dL. The GLC (72 h, time 3 day) was 199.4 mg/dL, the IP (72 h, time 3 day) was 6.8 mg/dL and the K (72 h, time 3 day) was 3.4 meq/L. It also gave an LDH (72 h, time 3 day) of 217.4 IU/L, a Na (72 h, time 3 day) of 140.6 meq/L and a PL (72 h, time 3 day) of 150.4 mg/dL. For the same compound, the RALB (72 h, time 3 day) was 3.4 g/dL, the TBIL (72 h, time 3 day) was 0.1 mg/dL and the TC (72 h, time 3 day) was 79.2 mg/dL. It also gave a TP (72 h, time 3 day) of 5.6 g/dL, a gamma-GTP (72 h, time 3 day) of 1.2 IU/L and a TERMINAL_BW ([…], time 7 day) of 253.9 g. It also gave a TERMINAL_BW ([…], time 14 day) of 309.3 g, a TERMINAL_BW ([…], time 28 day) of 374.6 g and an APTT ([…], time 7 day) of 21.5 s. For the same compound, the Bas ([…], time 7 day) was 0%, the Eos ([…], time 7 day) was 0.6% and the Fbg ([…], time 7 day) was 224.6 mg/dL. For the same compound, the Hb ([…], time 7 day) was 13.1 g/dL, the Ht ([…], time 7 day) was 38.8% and the Lym ([…], time 7 day) was 79.8%. The MCH ([…], time 7 day) was 20.5 pg, the MCV ([…], time 7 day) was 60.5 fL and the Mono ([…], time 7 day) was 2.4%. It also gave a Neu ([…], time 7 day) of 15.8%, a PT ([…], time 7 day) of 11.9 s and a Plat ([…], time 7 day) of 130.9 x10_4/uL. It also gave an RBC ([…], time 7 day) of 641.2 x10_4/ul, a Ret ([…], time 7 day) of 4.1% and a WBC ([…], time 7 day) of 127.4 x10_2/uL. For the same compound, the APTT ([…], time 14 day) was 22.3 s, the Bas ([…], time 14 day) was 0% and the Eos ([…], time 14 day) was 0.4%. The Fbg ([…], time 14 day) was 209.2 mg/dL, the Hb ([…], time 14 day) was 14.2 g/dL and the Ht ([…], time 14 day) was 41.2%. It also gave a Lym ([…], time 14 day) of 82.2%, an MCH ([…], time 14 day) of 20.6 pg and an MCV ([…], time 14 day) of 59.8 fL. For the same compound, the Mono ([…], time 14 day) was 2.4%, the Neu ([…], time 14 day) was 13.6% and the PT ([…], time 14 day) was 12.2 s. For the same compound, the Plat ([…], time 14 day) was 128.7 x10_4/uL, the RBC ([…], time 14 day) was 689.4 x10_4/ul and the Ret ([…], time 14 day) was 4.7%. For the same compound, the WBC ([…], time 14 day) was 149.2 x10_2/uL, the APTT ([…], time 28 day) was 22.9 s and the Bas ([…], time 28 day) was 0%. The Eos ([…], time 28 day) was 1%, the Fbg ([…], time 28 day) was 225.4 mg/dL and the Hb ([…], time 28 day) was 15.2 g/dL. For the same compound, the Ht ([…], time 28 day) was 43.4%, the Lym ([…], time 28 day) was 87.2% and the MCH ([…], time 28 day) was 19.6 pg. The MCV ([…], time 28 day) was 56 fL, the Mono ([…], time 28 day) was 2.2% and the Neu ([…], time 28 day) was 8.8%. It also gave a PT ([…], time 28 day) of 12.2 s, a Plat ([…], time 28 day) of 106.2 x10_4/uL and an RBC ([…], time 28 day) of 776.2 x10_4/ul. It also gave a Ret ([…], time 28 day) of 2.1%, a WBC ([…], time 28 day) of 142.7 x10_2/uL and a KIDNEY_L ([…], time 7 day) of 1.2 g. It also gave a KIDNEY_R ([…], time 7 day) of 1.1 g, a KIDNEY_TOTAL ([…], time 7 day) of 2.3 g and a KIDNEY_L ([…], time 14 day) of 1.3 g. For the same compound, the KIDNEY_R ([…], time 14 day) was 1.3 g, the KIDNEY_TOTAL ([…], time 14 day) was 2.7 g and the KIDNEY_L ([…], time 28 day) was 1.4 g. The KIDNEY_R ([…], time 28 day) was 1.4 g, the KIDNEY_TOTAL ([…], time 28 day) was 2.8 g and the LIVER ([…], time 7 day) was 14.2 g. The LIVER ([…], time 14 day) was 17.8 g, the LIVER ([…], time 28 day) was 19.5 g and the ALP ([…], time 7 day) was 803.4 IU/L. The ALT ([…], time 7 day) was 41.6 IU/L, the AST ([…], time 7 day) was 64.8 IU/L and the BUN ([…], time 7 day) was 15.4 mg/dL. The CRE ([…], time 7 day) was 0.4 mg/dL, the Ca ([…], time 7 day) was 10.7 mg/dL and the Cl ([…], time 7 day) was 101.8 meq/L. It also gave a DBIL ([…], time 7 day) of 0.098 mg/dL, a GLC ([…], time 7 day) of 212.6 mg/dL and an IP ([…], time 7 day) of 7 mg/dL. It also gave a K ([…], time 7 day) of 3.9 meq/L, an LDH ([…], time 7 day) of 261.2 IU/L and a Na ([…], time 7 day) of 139.6 meq/L. For the same compound, the PL ([…], time 7 day) was 174.4 mg/dL, the RALB ([…], time 7 day) was 3.6 g/dL and the TBIL ([…], time 7 day) was 0.1 mg/dL. It also gave a TC ([…], time 7 day) of 91.2 mg/dL, a TP ([…], time 7 day) of 6.1 g/dL and a gamma-GTP ([…], time 7 day) of 1.4 IU/L. It also gave an ALP ([…], time 14 day) of 774.4 IU/L, an ALT ([…], time 14 day) of 38.6 IU/L and an AST ([…], time 14 day) of 62.8 IU/L. It also gave a BUN ([…], time 14 day) of 17.5 mg/dL, a CRE ([…], time 14 day) of 0.5 mg/dL and a Ca ([…], time 14 day) of 11 mg/dL. It also gave a Cl ([…], time 14 day) of 101 meq/L, a DBIL ([…], time 14 day) of 0.1 mg/dL and a GLC ([…], time 14 day) of 193.4 mg/dL. The IP ([…], time 14 day) was 7.2 mg/dL, the K ([…], time 14 day) was 3.9 meq/L and the LDH ([…], time 14 day) was 192 IU/L. The Na ([…], time 14 day) was 140.8 meq/L, the PL ([…], time 14 day) was 170.4 mg/dL and the RALB ([…], time 14 day) was 3.5 g/dL. For the same compound, the TBIL ([…], time 14 day) was 0.2 mg/dL, the TC ([…], time 14 day) was 89 mg/dL and the TP ([…], time 14 day) was 6.4 g/dL. The gamma-GTP ([…], time 14 day) was 0.6 IU/L, the ALP ([…], time 28 day) was 555 IU/L and the ALT ([…], time 28 day) was 39.8 IU/L. For the same compound, the AST ([…], time 28 day) was 55 IU/L, the BUN ([…], time 28 day) was 20.4 mg/dL and the CRE ([…], time 28 day) was 0.5 mg/dL. It also gave a Ca ([…], time 28 day) of 10.6 mg/dL, a Cl ([…], time 28 day) of 101.4 meq/L and a DBIL ([…], time 28 day) of 0.09 mg/dL. The GLC ([…], time 28 day) was 226 mg/dL, the IP ([…], time 28 day) was 6.4 mg/dL and the K ([…], time 28 day) was 3.6 meq/L. It also gave an LDH ([…], time 28 day) of 218.2 IU/L, a Na ([…], time 28 day) of 140.6 meq/L and a PL ([…], time 28 day) of 180.8 mg/dL. For the same compound, the RALB ([…], time 28 day) was 3.7 g/dL, the TBIL ([…], time 28 day) was 0.1 mg/dL and the TC ([…], time 28 day) was 93.8 mg/dL. The TP ([…], time 28 day) was 6.5 g/dL and the gamma-GTP ([…], time 28 day) was 1.2 IU/L.
